# In ChEMBL document CHEMBL2203238, “Hit to Lead optimization of a novel class of squarate-containing polo-like kinases inhibitors” (Bioorg Med Chem Lett, 2012):
# pKi: −log10 of the molar value.
# Tests used:
# [1] = target: 5'-AMP-activated protein kinase subunit beta-1 (Homo sapiens, UniProt Q9Y478); assay: Inhibition of recombinant AMPK after 1 hr by scintillation counter analysis in presence of gamma-[33P]ATP
# [2] = target: Tyrosine-protein kinase Fyn (Homo sapiens, UniProt P06241); assay: Inhibition of recombinant FYN after 1 hr by scintillation counter analysis in presence of gamma-[33P]ATP
# [3] = target: Serine/threonine-protein kinase pim-1 (Homo sapiens, UniProt P11309); assay: Inhibition of recombinant PIM1 after 1 hr by scintillation counter analysis in presence of gamma-[33P]ATP
# [4] = target: Proto-oncogene tyrosine-protein kinase Src (Homo sapiens, UniProt P12931); assay: Inhibition of recombinant SRC after 1 hr by scintillation counter analysis in presence of gamma-[33P]ATP
# [5] = target: Interleukin-1 receptor-associated kinase 4 (Homo sapiens, UniProt Q9NWZ3); assay: Inhibition of recombinant IRAK4 after 1 hr by scintillation counter analysis in presence of gamma-[33P]ATP
# [6] = target: Glycogen synthase kinase-3 alpha (Homo sapiens, UniProt P49840); assay: Inhibition of recombinant GSK3A after 1 hr by scintillation counter analysis in presence of gamma-[33P]ATP
# LIM domain kinase 1 = LIM domain kinase 1 (Homo sapiens, UniProt P53667); assay: Inhibition of recombinant LIMK1 after 1 hr by scintillation counter analysis in presence of gamma-[33P]ATP
# [7] = target: Serine/threonine-protein kinase D2 (Homo sapiens, UniProt Q9BZL6); assay: Inhibition of recombinant PKD2 after 1 hr by scintillation counter analysis in presence of gamma-[33P]ATP
# [8] = target: Fibroblast growth factor receptor 3 (Homo sapiens, UniProt P22607); assay: Inhibition of recombinant FGFR3 after 1 hr by scintillation counter analysis in presence of gamma-[33P]ATP
# [9] = target: Serine/threonine-protein kinase Sgk1 (Homo sapiens, UniProt O00141); assay: Inhibition of recombinant SGK after 1 hr by scintillation counter analysis in presence of gamma-[33P]ATP
# [10] = target: Rho-associated protein kinase 2 (Homo sapiens, UniProt O75116); assay: Inhibition of recombinant ROCK2 after 1 hr by scintillation counter analysis in presence of gamma-[33P]ATP
# [11] = target: Serine/threonine-protein kinase Chk1 (Homo sapiens, UniProt O14757); assay: Inhibition of recombinant CHK1 after 1 hr by scintillation counter analysis in presence of gamma-[33P]ATP
# [12] = Oral bioavailability in mouse; type: ADME, organism-based; conditions: in vivo
# [13] = target: Receptor tyrosine-protein kinase erbB-2 (Homo sapiens, UniProt P04626); assay: Inhibition of recombinant ERBB2 after 1 hr by scintillation counter analysis in presence of gamma-[33P]ATP
# [14] = target: Protein kinase C delta type (Homo sapiens, UniProt Q05655); assay: Inhibition of recombinant PKCdelta after 1 hr by scintillation counter analysis in presence of gamma-[33P]ATP
# [15] = target: Glycogen synthase kinase-3 beta (Homo sapiens, UniProt P49841); assay: Inhibition of recombinant GSK3B after 1 hr by scintillation counter analysis in presence of gamma-[33P]ATP
# [16] = target: Cell division control protein 42 homolog (Homo sapiens, UniProt P60953); assay: Inhibition of recombinant CDC42 after 1 hr by scintillation counter analysis in presence of gamma-[33P]ATP
# MIA PaCa-2 = assay: Antitumor activity against human MIAPaCa2 cells xenografted in SCID mouse assessed as tumor growth inhibition at 100 mg/kg/day, po measured on day 35 relative to vehicle-treated control; type: functional; conditions: MIA PaCa-2, 840 h, read-out: TGI
# [17] = Half life in mouse, iv; type: ADME, organism-based; conditions: in vivo
# [18] = Inhibition of recombinant CK2 after 1 hr by scintillation counter analysis in presence of gamma-[33P]ATP
# [19] = target: Mitogen-activated protein kinase 8 (Homo sapiens, UniProt P45983); assay: Inhibition of recombinant JNK1A1 after 1 hr by scintillation counter analysis in presence of gamma-[33P]ATP
# [20] = target: RAC-beta serine/threonine-protein kinase (Homo sapiens, UniProt P31751); assay: Inhibition of recombinant AKT2 after 1 hr by scintillation counter analysis in presence of gamma-[33P]ATP
# [21] = target: Serine/threonine-protein kinase PLK2 (Homo sapiens, UniProt Q9NYY3); assay: Inhibition of recombinant PLK2 after 1 hr by scintillation counter analysis in presence of gamma-[33P]ATP
# [22] = target: Hepatocyte growth factor receptor (Homo sapiens, UniProt P08581); assay: Inhibition of recombinant c-MET after 1 hr by scintillation counter analysis in presence of gamma-[33P]ATP
# [23] = target: Casein kinase I isoform delta (Homo sapiens, UniProt P48730); assay: Inhibition of recombinant CK1delta after 1 hr by scintillation counter analysis in presence of gamma-[33P]ATP
# [24] = target: Mitogen-activated protein kinase 1 (Homo sapiens, UniProt P28482); assay: Inhibition of recombinant ERK2 after 1 hr by scintillation counter analysis in presence of gamma-[33P]ATP
# [25] = Cmax in mouse at 50 mg/kg, po measured at 8 hrs; type: ADME, organism-based; design: dose 50 mg/kg, route oral; conditions: in vivo
# [26] = target: RAC-alpha serine/threonine-protein kinase (Homo sapiens, UniProt P31749); assay: Inhibition of recombinant AKT1 after 1 hr by scintillation counter analysis in presence of gamma-[33P]ATP
# [27] = target: Tyrosine-protein kinase Lyn (Homo sapiens, UniProt P07948); assay: Inhibition of recombinant LYN after 1 hr by scintillation counter analysis in presence of gamma-[33P]ATP
# [28] = target: Insulin-like growth factor 1 receptor (Homo sapiens, UniProt P08069); assay: Inhibition of recombinant IGF1R after 1 hr by scintillation counter analysis in presence of gamma-[33P]ATP
# Mus musculus = assay: Toxicity in SCID mouse xenografted with human MIAPaCa2 cells assessed as body weight loss at 100 mg/kg/day, po measured on day 26 to day 44; type: organism-based, MIA PaCa-2; design: route oral; conditions: in vivo
# [29] = target: Receptor-type tyrosine-protein kinase FLT3 (Homo sapiens, UniProt P36888); assay: Inhibition of recombinant FLT3 after 1 hr by scintillation counter analysis in presence of gamma-[33P]ATP
# [30] = target: Serine/threonine-protein kinase PLK1 (Homo sapiens, UniProt P53350); assay: Inhibition of recombinant GST-tagged PLK1 using biotin-ahx-AKMETTFYDDALNASFLPSEKKK-amide as substrate after 30 mins by scintillation counting analysis in presence of gamma-[33P]ATP
# [31] = target: Serine/threonine-protein kinase PLK4 (Homo sapiens, UniProt O00444); assay: Inhibition of recombinant PLK4 after 1 hr by scintillation counter analysis in presence of gamma-[33P]ATP
# [32] = target: 3-phosphoinositide-dependent protein kinase 1 (Homo sapiens, UniProt O15530); assay: Inhibition of recombinant PDK1 after 1 hr by scintillation counter analysis in presence of gamma-[33P]ATP
# Rho-associated protein kinase 2, sequence (O75116 whole entry): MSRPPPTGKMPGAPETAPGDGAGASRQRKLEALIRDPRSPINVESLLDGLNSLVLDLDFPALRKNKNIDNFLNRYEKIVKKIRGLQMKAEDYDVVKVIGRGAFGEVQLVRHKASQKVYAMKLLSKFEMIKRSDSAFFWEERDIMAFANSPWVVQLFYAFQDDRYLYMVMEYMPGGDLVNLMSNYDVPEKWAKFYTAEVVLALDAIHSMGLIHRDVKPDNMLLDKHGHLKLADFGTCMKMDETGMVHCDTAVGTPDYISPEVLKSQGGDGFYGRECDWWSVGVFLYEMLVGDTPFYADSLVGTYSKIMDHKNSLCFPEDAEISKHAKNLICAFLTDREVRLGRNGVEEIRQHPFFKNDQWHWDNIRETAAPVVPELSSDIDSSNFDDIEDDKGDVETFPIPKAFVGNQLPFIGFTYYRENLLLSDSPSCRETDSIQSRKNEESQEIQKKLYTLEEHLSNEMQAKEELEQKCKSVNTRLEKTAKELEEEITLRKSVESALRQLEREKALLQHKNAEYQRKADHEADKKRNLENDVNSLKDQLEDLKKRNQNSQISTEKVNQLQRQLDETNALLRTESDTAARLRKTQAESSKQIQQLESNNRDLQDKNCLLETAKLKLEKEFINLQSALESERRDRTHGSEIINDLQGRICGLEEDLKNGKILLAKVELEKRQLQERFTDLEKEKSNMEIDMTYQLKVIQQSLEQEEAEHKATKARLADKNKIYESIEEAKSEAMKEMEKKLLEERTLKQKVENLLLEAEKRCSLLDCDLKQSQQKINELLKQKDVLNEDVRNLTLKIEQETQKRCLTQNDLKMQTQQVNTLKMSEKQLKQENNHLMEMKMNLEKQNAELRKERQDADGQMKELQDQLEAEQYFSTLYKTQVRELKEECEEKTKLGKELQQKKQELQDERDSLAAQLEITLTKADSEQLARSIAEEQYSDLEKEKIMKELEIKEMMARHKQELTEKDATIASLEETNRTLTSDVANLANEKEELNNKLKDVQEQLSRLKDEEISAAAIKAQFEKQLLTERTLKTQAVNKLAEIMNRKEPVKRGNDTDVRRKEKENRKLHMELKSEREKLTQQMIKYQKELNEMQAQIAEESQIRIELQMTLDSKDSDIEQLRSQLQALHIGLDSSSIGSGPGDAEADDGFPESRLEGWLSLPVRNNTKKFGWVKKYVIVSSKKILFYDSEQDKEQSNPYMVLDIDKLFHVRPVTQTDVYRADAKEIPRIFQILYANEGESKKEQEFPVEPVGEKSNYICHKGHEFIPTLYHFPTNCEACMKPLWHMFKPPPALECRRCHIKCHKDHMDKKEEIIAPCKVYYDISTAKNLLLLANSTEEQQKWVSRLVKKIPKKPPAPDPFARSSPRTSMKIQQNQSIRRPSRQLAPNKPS
# Interleukin-1 receptor-associated kinase 4, sequence (Q9NWZ3 whole entry): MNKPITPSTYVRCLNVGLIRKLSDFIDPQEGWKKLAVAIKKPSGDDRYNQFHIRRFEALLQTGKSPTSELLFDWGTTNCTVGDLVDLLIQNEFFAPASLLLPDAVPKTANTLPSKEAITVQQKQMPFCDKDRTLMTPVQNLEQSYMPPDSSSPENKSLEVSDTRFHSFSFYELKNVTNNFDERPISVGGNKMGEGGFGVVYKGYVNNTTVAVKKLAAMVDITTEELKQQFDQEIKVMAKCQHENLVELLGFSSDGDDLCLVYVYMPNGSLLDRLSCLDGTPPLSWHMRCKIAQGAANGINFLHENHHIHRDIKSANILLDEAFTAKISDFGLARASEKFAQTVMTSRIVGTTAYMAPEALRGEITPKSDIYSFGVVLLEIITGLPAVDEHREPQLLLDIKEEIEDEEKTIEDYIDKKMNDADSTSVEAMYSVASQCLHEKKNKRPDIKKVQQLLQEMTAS
# Serine/threonine-protein kinase PLK1, sequence (P53350 whole entry): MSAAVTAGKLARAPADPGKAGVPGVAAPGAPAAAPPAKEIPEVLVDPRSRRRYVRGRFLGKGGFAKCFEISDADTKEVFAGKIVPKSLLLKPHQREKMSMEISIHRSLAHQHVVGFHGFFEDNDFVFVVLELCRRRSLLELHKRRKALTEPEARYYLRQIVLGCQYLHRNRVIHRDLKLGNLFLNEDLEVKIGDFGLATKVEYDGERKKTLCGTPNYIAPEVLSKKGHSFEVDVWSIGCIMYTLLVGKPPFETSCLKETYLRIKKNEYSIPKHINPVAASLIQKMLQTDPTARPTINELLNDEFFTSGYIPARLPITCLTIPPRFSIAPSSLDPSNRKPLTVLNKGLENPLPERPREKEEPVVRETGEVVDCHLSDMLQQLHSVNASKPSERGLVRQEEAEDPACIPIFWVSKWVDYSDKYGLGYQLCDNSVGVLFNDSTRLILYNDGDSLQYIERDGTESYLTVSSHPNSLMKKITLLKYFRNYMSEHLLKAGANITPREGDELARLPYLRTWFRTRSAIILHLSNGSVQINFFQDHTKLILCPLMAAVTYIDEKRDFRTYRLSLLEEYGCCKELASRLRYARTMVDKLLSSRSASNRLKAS
# Insulin-like growth factor 1 receptor, sequence (P08069 31-736 limits assumed): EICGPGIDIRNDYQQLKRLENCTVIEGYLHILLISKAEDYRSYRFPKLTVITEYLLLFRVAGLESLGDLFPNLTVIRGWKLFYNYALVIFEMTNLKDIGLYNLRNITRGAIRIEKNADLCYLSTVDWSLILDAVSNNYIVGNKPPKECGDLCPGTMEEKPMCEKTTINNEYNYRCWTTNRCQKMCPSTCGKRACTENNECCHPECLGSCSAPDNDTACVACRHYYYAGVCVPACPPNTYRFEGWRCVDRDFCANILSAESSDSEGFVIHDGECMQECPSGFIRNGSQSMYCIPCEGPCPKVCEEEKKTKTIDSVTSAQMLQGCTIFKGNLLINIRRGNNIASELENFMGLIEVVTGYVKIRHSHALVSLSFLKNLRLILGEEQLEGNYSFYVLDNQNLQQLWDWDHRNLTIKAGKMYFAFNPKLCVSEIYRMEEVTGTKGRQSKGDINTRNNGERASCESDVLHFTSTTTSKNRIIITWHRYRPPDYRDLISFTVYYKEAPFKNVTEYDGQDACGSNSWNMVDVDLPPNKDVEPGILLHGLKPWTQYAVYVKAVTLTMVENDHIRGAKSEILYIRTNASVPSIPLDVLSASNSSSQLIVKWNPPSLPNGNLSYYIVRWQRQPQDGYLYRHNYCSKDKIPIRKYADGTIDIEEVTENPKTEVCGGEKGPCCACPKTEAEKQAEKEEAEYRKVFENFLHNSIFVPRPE
# Insulin-like growth factor 1 receptor, sequence (P08069 741-1367 limits assumed): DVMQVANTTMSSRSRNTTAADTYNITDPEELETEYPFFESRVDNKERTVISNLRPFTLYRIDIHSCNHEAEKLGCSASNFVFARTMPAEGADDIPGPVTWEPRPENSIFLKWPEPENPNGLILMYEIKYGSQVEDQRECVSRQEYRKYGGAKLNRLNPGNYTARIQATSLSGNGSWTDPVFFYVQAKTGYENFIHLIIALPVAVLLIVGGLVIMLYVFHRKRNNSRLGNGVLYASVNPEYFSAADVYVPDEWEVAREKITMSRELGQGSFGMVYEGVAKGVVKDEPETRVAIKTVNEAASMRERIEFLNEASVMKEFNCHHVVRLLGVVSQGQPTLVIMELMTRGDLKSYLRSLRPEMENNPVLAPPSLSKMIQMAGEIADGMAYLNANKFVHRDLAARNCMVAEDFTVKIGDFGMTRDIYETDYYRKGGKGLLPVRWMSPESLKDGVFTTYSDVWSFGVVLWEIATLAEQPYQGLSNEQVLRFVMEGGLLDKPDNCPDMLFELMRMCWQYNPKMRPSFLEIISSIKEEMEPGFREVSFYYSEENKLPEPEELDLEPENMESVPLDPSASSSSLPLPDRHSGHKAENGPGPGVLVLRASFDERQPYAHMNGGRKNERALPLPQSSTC
# Proto-oncogene tyrosine-protein kinase Src, sequence (P12931 2-536 limits assumed): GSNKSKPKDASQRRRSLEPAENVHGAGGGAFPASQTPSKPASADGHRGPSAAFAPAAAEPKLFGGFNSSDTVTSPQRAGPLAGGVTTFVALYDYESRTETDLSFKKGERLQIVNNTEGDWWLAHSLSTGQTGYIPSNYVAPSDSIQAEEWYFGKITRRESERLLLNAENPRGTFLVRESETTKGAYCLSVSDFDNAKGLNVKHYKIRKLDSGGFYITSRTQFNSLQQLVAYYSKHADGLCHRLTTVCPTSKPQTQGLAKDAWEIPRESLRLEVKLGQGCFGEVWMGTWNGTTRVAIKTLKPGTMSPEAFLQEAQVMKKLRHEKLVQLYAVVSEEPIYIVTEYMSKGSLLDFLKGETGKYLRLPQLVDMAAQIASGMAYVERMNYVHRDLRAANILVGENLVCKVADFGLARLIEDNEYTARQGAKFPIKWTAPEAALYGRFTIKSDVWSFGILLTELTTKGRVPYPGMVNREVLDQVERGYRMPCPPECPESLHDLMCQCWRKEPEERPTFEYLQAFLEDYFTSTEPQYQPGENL
# Serine/threonine-protein kinase pim-1, sequence (P11309 whole entry): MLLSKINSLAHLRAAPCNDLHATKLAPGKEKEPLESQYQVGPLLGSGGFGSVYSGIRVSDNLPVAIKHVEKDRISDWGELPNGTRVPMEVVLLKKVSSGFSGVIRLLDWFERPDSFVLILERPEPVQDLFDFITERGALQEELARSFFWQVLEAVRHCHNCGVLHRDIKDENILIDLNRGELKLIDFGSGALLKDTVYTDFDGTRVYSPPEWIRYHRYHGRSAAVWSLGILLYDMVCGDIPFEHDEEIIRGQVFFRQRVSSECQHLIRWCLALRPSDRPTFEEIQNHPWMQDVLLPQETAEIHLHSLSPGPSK
# Glycogen synthase kinase-3 beta, sequence (P49841 whole entry): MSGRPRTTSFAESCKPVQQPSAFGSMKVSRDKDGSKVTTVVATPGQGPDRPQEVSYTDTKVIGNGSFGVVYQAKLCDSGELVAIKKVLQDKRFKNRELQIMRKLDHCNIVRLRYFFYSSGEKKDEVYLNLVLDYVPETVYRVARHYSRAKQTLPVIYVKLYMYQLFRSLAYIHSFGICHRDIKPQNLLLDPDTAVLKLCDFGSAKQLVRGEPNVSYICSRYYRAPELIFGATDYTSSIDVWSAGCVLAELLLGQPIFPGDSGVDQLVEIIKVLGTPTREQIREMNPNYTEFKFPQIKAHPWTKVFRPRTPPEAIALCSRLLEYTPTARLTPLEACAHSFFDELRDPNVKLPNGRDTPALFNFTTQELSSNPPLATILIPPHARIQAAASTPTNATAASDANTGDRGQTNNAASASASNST
structure (smiles),measurement,setting,value
CC(C)(C)Nc1c(Nc2ccnc(Nc3ccc(-c4ccncc4)cc3)n2)c(=O)c1=O,pKi,[1],6.48
same,pKi,[2],6.48
same,pKi,[3],5.80
same,pKi,[4],< 5.72
same,pKi,[5],< 5.00
same,pKi,[6],7.68
same,pKi,LIM domain kinase 1,6.71
same,pKi,[7],6.76
same,pKi,[8],5.85
same,pKi,[9],6.59
same,pKi,[10],6.37
same,pKi,[11],6.78
same,bioavailability,[12],100%
same,pKi,[13],< 5.85
same,pKi,[14],8.10
same,pKi,[15],6.99
same,pKi,[16],< 5.36
same,inhibition in vivo at 100 mg/kg/day,MIA PaCa-2,38%
same,half-life,[17],20.4 min
same,pKi,[18],6.56
same,pKi,[19],< 5.52
same,pKi,[20],< 5.10
same,pKi,[21],8.70
same,pKi,[22],5.80
same,pKi,[23],< 5.11
same,pKi,[24],5.14
same,Cmax,[25],3.3 µM
same,pKi,[26],< 5.10
same,pKi,[27],< 5.80
same,pKi,[28],< 5.74
same,Activity,Mus musculus,Non-toxic
same,pKi,[29],6.31
same,pKi,[30],8.30
same,pKi,[31],8.15
same,pKi,[32],7.15
